Source: patent US20110144079A1, “ANTIMICROBIAL SYSTEM” (priority 2008, published 2011)
Where two headings read alike, the source gives them in different places.

How the values were obtained:
S. aureus PIII [1] = test: Broth microdilution MIC; format: cell-based
Procedure: (§1) Broth microdilution tests were performed according to NCCLS guidelines. Serial two-fold dilutions of each imidazolium salt (from an original working solution which had been 0.22 μm sterile filtered) in Mueller-Hinton Broth (MHB) (100 μl) were prepared in 96-well micro-titre plates over the range 0.0000625-1% w/v. The inoculum to be tested was prepared by adjusting the turbidity of an actively overnight growing broth culture in MHB to an optical density at 550 nm equivalent to 1×10^8 CFU/ml. The suspension was further diluted to provide a final inoculum density of 2×10^5 CFU/ml in MHB as verified by total viable count. The inoculum to be tested (100 μl, 2×10^5 CFU ml^−1) was added to each well of the microdilution trays which were incubated aerobically for 24 h at 37° C. Positive and negative growth controls were included in every assay (6 replicates). After determining the MICs, minimum bactericidal concentrations (MBCs) were determined by spreading 20 μl of suspension from wells showing no growth onto MHA plates, which were then incubated for 24 h and examined for 99.9% killing.

P. mirabilis NCTC 12442 [2] = test: Biofilm assay (Calgary Biofilm Device), MBEC; format: cell-based; settings: P. mirabilis NCTC 12442 24 h biofilm, 24 h challenge
Procedure: (§2) Biofilms of each test organism were grown in the Calgary Biofilm Device (commercially available as the MBEC Assay™ for Physiology & Genetics, Innovotech Inc., Edmonton, Alberta, Canada). The device, a micro-titre plated based assay, consists of two parts; a microtitre plate containing the inoculated test medium and a polystyrene lid with 96 identical pegs on which the microbial biofilm forms under gyrorotary incubation. The biofilm assay was conducted according to the MBEC™ assay protocol as supplied by the manufacturer, with slight modifications. Inocula of each test organism were prepared in MHB as described above and adjusted to provide a final inoculum density of ˜10^7 CFU ml^−1 (as confirmed by viable count). 150 μl of the inoculated media was transferred to each well of the 96-well microtitre plate and the assay plate lid, bearing 96 pegs was placed into the microtitre plate. The MBEC assay plates were placed in a gyrorotary incubator (37° C., 95% relative humidity) for 24 h to permit growth and comparison of 24 h biofilms of each test strain. Positive and negative growth controls were included in each plate (6 replicates). Initial and 24 h planktonic viable counts were measured, as were 24 h biofilm counts, expressed as CFU peg^−1, according to manufacturers instructions. After 24 h, the peg lid of the MBEC assay plate was gently rinsed three times. After rinsing, the peg lid of the MBEC assay was transferred to a ‘challenge’ plate. Serial dilutions of each imidazolium salt were prepared in 200 μl of MHB containing various concentrations of IL in each well. Positive growth control and sterility control were included in each assay plate. […] Biofilms were dislodged into recovery media by sonication for 5 minutes and the peg lid discarded. The recovery plate is incubated overnight and visually checked after 24 h for turbidity. In addition, optical density measurements for each plate were recorded at 550 nm. Clear wells were taken as evidence of biofilm eradication and the MBEC value was assigned as the lowest concentration at which no growth was observed after 24 h incubation. Plates were incubated for a further 24 h to confirm biofilm eradication concentrations.

[3] = tested on: S. epidermidis ATCC 35984; test: Biofilm assay (Calgary Biofilm Device), MBEC; format: cell-based; settings: for MBEC: S. epidermidis ATCC 35984 24 h biofilm, 24 h challenge
Procedure: as §2

C. tropicalis NCTC 7393 [4] = test: Biofilm assay (Calgary Biofilm Device), MBEC; format: cell-based; settings: C. tropicalis NCTC 7393 24 h biofilm, 24 h challenge
Procedure: as §2

K. aerogenes NCTC 7427 [5] = test: Biofilm assay (Calgary Biofilm Device), MBEC; format: cell-based; settings: K. aerogenes NCTC 7427 24 h biofilm, 24 h challenge
Procedure: as §2

S. aureus PIII [6] = test: Biofilm assay (Calgary Biofilm Device), MBEC; format: cell-based; settings: S. aureus PIII 24 h biofilm, 24 h challenge
Procedure: as §2

E-MRSA 15 [7] = test: Biofilm assay (Calgary Biofilm Device), MBEC; format: cell-based; settings: E-MRSA 15 24 h biofilm, 24 h challenge
Procedure: as §2

B. cereus [8] = test: Biofilm assay (Calgary Biofilm Device), MBEC; format: cell-based; settings: B. cereus 24 h biofilm, 24 h challenge
Procedure: as §2

E. coli NCTC 8196 [9] = test: Biofilm assay (Calgary Biofilm Device), MBEC; format: cell-based; settings: E. coli NCTC 8196 24 h biofilm, 24 h challenge
Procedure: as §2

P. aeruginosa PA01 [10] = test: Biofilm assay (Calgary Biofilm Device), MBEC; format: cell-based; settings: P. aeruginosa PA01 24 h biofilm, 24 h challenge
Procedure: as §2

P. mirabilis NCTC 12442 [11] = test: Broth microdilution MIC/MBC; format: cell-based; settings: for MIC: P. mirabilis NCTC 12442, 24 h at 37° C.
Procedure: as §1

[12] = tested on: S. epidermidis ATCC 35984; test: Broth microdilution MIC/MBC; format: cell-based; settings: for MBC: S. epidermidis ATCC 35984, 99.9% killing; for MIC: S. epidermidis ATCC 35984, 24 h at 37° C.
Procedure: as §1

C. tropicalis NCTC 7393 [13] = test: Broth microdilution MIC/MBC; format: cell-based; settings: for MBC: C. tropicalis NCTC 7393, 99.9% killing; for MIC: C. tropicalis NCTC 7393, 24 h at 37° C.
Procedure: as §1

K. aerogenes NCTC 7427 [14] = test: Broth microdilution MIC/MBC; format: cell-based; settings: for MBC: K. aerogenes NCTC 7427, 99.9% killing; for MIC: K. aerogenes NCTC 7427, 24 h at 37° C.
Procedure: as §1

E-MRSA 15 [15] = test: Broth microdilution MIC/MBC; format: cell-based; settings: for MBC: E-MRSA 15, 99.9% killing; for MIC: E-MRSA 15, 24 h at 37° C.
Procedure: as §1

B. cereus [16] = test: Broth microdilution MIC/MBC; format: cell-based; settings: 24 h at 37° C.
Procedure: as §1

E. coli NCTC 8196 [17] = test: Broth microdilution MIC/MBC; format: cell-based; settings: for MBC: E. coli NCTC 8196, 99.9% killing; for MIC: E. coli NCTC 8196, 24 h at 37° C.
Procedure: as §1

S. aureus ATCC 29213 [18] = test: Broth microdilution MIC/MBC; format: cell-based; settings: for MBC: S. aureus ATCC 29213, 99.9% killing; for MIC: S. aureus ATCC 29213, 24 h at 37° C.
Procedure: as §1

[19] = tested on: S. epidermidis ATCC 12228; test: Broth microdilution MIC/MBC; format: cell-based; settings: for MBC: S. epidermidis ATCC 12228, 99.9% killing; for MIC: S. epidermidis ATCC 12228, 24 h at 37° C.
Procedure: as §1

P. aeruginosa PA01 [20] = test: Broth microdilution MIC/MBC; format: cell-based; settings: for MIC: P. aeruginosa PA01, 24 h at 37° C., read-out: MIC
Procedure: as §1

E. coli PIII [21] = test: Broth microdilution MIC; format: cell-based
Procedure: as §1

B. cenocepacia J2315 [22] = test: Biofilm assay (Calgary Biofilm Device), MBEC; format: cell-based; settings: B. cenocepacia J2315 24 h biofilm, 24 h challenge
Procedure: as §2

S. aureus ATCC 29213 [23] = test: Biofilm assay (Calgary Biofilm Device), MBEC; format: cell-based; settings: S. aureus ATCC 29213 24 h biofilm, 24 h challenge
Procedure: as §2

E. coli PIII [24] = test: Biofilm assay (Calgary Biofilm Device), MBEC; format: cell-based; settings: E. coli PIII 24 h biofilm, 24 h challenge
Procedure: as §2

MRSA [25] = test: Zone of inhibition on MRSA-seeded agar culture plates; format: cell-based, methicillin-resistant S. aureus; settings: 40 μL of ionic liquid applied to MRSA-seeded agar culture plates
Description: As used herein, CyMIMCI, refers to 1-alkyl-3-methyl-imidazolium chloride ionic liquids, wherein the alkyl group is a straight chain alkyl group having y carbon atoms.

MRSA [26] = test: Biofilm assay (Calgary Biofilm Device), MBEC; format: cell-based, methicillin-resistant S. aureus
Procedure: as §2

B. cenocepacia J2315 [27] = test: Broth microdilution MIC/MBC; format: cell-based
Procedure: as §1

MRSA [28] = test: Broth microdilution MIC/MBC; format: cell-based, methicillin-resistant S. aureus; settings: for MIC: 24 h at 37° C.
Procedure: as §1

[29] = tested on: S. epidermidis ATCC 12228; test: Biofilm assay (Calgary Biofilm Device), MBEC; format: cell-based
Procedure: as §2

[30] = Staphylococcus epidermidis, ATCC12228
[31] = Pseudomonas aeruginosa, PA01, 24 h

MIC (P. mirabilis NCTC 12442 [11]) | MIC [12] | MIC (C. tropicalis NCTC 7393 [13]) | MIC (K. aerogenes NCTC 7427 [14]) | MIC (E-MRSA 15 [15]) | MIC (E. coli NCTC 8196 [17]) | MIC (S. aureus ATCC 29213 [18]) | Structure (SMILES) | MBEC (P. mirabilis NCTC 12442 [2]) | MBEC [3] | MBEC (C. tropicalis NCTC 7393 [4]) | MBEC (K. aerogenes NCTC 7427 [5]) | MBEC (E-MRSA 15 [7]) | MBEC (B. cereus [8]) | MBEC (P. aeruginosa PA01 [10]) | MBC [12] | MBC (C. tropicalis NCTC 7393 [13]) | MBC (K. aerogenes NCTC 7427 [14]) | MBC (E-MRSA 15 [15]) | MBC (E. coli NCTC 8196 [17]) | MBC (S. aureus ATCC 29213 [18]) | other results
70.24 µM | 35.12 µM | 35.12 µM | 35.12 µM | 35.12 µM | 35.12 µM | 70.24 µM | CCCCCCCCCCCCCCCC[n+]1cccc2ccccc21.[Br-] [1-alkyl-3-quinolinium bromides 16] | 2247.68 µM | 561.92 µM | 561.92 µM | 561.92 µM | 1123.84 µM | 1123.84 µM | 1123.84 µM | 35.12 µM | 70.24 µM | 35.12 µM | 70.24 µM | 70.24 µM | 70.24 µM | MIC (S. aureus PIII [1]): 70.24 µM; MBEC (S. aureus PIII [6]): 1123.84 µM; MBEC (E. coli NCTC 8196 [9]): 561.92 µM; MIC (B. cereus [16]): 140.48 µM; MBC [19]: 35.12 µM; MIC [19]: 35.12 µM; MIC (P. aeruginosa PA01 [20]): 70.24 µM
1444 µM | 722 µM | 1444 µM | 1444 µM | 722 µM | 722 µM | 722 µM | CCCCCCCCn1cc[n+](C)c1.[Cl-] [C8MIMCl] | 43331 µM | 10833 µM | >43331 µM | 43331 µM | 2708 µM | – | 21666 µM | 1444 µM | >1444 µM | >1444 µM | >1444 µM | 1444 µM | >1444 µM | MIC (E. coli PIII [21]): 722 µM; MBEC (B. cenocepacia J2315 [22]): 43331 µM; percent weight to volume of ionic liquid that corresponds to the MBEC value ([3]; S. epidermidis ATCC 35984 biofilm): (0.25) % w/v; MBEC (S. aureus ATCC 29213 [23]): 2708 µM; MBEC (E. coli PIII [24]): 21666 µM; Zone Of Inhibition Radius (MRSA [25]): 12 mm; MBEC (MRSA [26]; MRSA 24 h biofilm, 24 h challenge): 21666 µM; percent weight to volume of ionic liquid that corresponds to the MBEC value (MRSA [26]; MRSA biofilm): (0.5) % w/v; MBC (B. cenocepacia J2315 [27]; B. cenocepacia J2315, 99.9% killing): >1444 µM; MIC (B. cenocepacia J2315 [27]; B. cenocepacia J2315, 24 h at 37° C.): >1444 µM; MBC (P. mirabilis NCTC 12442 [11]; P. mirabilis NCTC 12442, 99.9% killing): >1444 µM; MBC [19]: 1444 µM; MIC [19]: 361 µM; MBC (P. aeruginosa PA01 [20]; P. aeruginosa PA01, 99.9% killing): >1444 µM; MBC (MRSA [28]; 99.9% killing): >1444 µM; MIC (MRSA [28]): 1444 µM
– | – | – | – | – | – | – | CCCCCCCCCCCCCC[n+]1cccc2cc(C)ccc21.[Br-] [IL3, N-tetradecyl-6-methylquinolinium bromide] | – | – | – | – | – | – | – | – | – | – | – | – | – | MBEC [29]: 8.2 µM; MIC (P. mirabilis NCTC 12442 [11]; Proteus mirabilis, NCTC12442): 92.9 µM; MIC (B. cereus [16]; Bacillus cereus): 2.9 µM; MIC (E. coli NCTC 8196 [17]; Escherichia coli, NCTC8196): 11.6 µM; MIC [19, 30]: 8.2 µM; MIC (P. aeruginosa PA01 [20]; [31]): 23.2 µM; MIC (MRSA [28]; Staphylococcus aureus): 23.2 µM
– | – | – | – | – | – | – | CCCCCCCCCCCCCC[n+]1ccc2ccccc2c1.[Br-] [IL4, N-tetradecylisoquinolinium bromide] | – | 31.5 µM | – | 63.4 µM | – | 7.9 µM | – | – | – | – | – | – | – | MBEC (S. aureus ATCC 29213 [23]): 126.9 µM; MBEC [29]: 31.7 µM; MIC (P. mirabilis NCTC 12442 [11]; Proteus mirabilis, NCTC12442): 193 µM; MIC ([12]; Staphylococcus epidermidis, ATCC35984, 24 h): 7.9 µM; MIC (K. aerogenes NCTC 7427 [14]; Klebsiella aerogenes, NCTC7427): 7.9 µM; MIC (B. cereus [16]; Bacillus cereus): 3 µM; MIC (E. coli NCTC 8196 [17]; Escherichia coli, NCTC8196): 24.1 µM; MIC (S. aureus ATCC 29213 [18]; Staphylococcus aureus, ATCC29213): 7.9 µM; MIC [19, 30]: 7.9 µM; MIC (P. aeruginosa PA01 [20]; [31]): 48.2 µM; MIC (MRSA [28]; Staphylococcus aureus): 24.1 µM
